Tests used:
ChoK [1] = test: ChoK activity by 14C-labeled choline uptake, TLC/autoradiography, in MDA-MB-231 cells; assay type: cell-based, human; conditions: for ChoK inhibition (PC production as % control): MDA-MB-231 cells, increasing concentrations, 14 h following 14C-choline addition; for IC50 of ChoK inhibition: relative to positive control MN58b
Procedure: ChoK activity was assessed in triple-negative MDA-MB-231 breast cancer cells and in non-transformed MCF10a breast epithelial cells using ^14C-labeled choline uptake.
MDA-MB-231 cells and non-malignant MCF-10a cells were incubated for 14 hr with JAS239 and analyzed by TLC/autoradiography after ^14C-choline labeling.
MDA-MB-231 cells were incubated with increasing concentrations of JAS239 or JAS240. 14 h following ^14C-choline addition, cells were extracted for TLC/autoradiography analysis. […] MN58b was used as positive control.

ChoK [2] = molecular target: T1, ChoK (Homo sapiens, UniProt P35790); test: Choline competition: phosphorylation of 14C-labeled choline with varying choline concentrations; assay type: cell-based; conditions: MDA-MB-231 cells, 2 hr, 10 μM
T1 construct: endogenous in cells; host or cells: MDA-MB-231 (and MCF10a) cells
Procedure: (§1) MDA-MB-231 cells were treated for 2 hr with or without 10 μM JAS239 in the presence of varying concentrations of choline. Autoradiography was used to estimate phosphorylation of ^14C-labeled choline. Fluorimetry was performed under the same cellular conditions for estimation of probe uptake (Excitation 640 nm, Emission 770 nm). These values represent a ratio of JAS239 treated vs. untreated cells, and are reported relative to control.

MDA-MB-231 tumors = test: In vivo fluorescence distribution in mice bearing MDA-MB-231 tumors; design: species or system athymic nude mice
MDA-MB-231 cells [3] = test: Fluorescent confocal microscopy, subcellular localization; assay type: cell-based, human; conditions: 2 μM
Procedure: (§2) Immunofluorescence studies confirmed the specificity of ChoKα binding (FIG. 7). […] Cells were treated with a Rabbit polyclonal antibody to human ChoKα followed by a Texas Red Goat Anti-Rabbit IgG secondary antibody. Confocal images were taken using a Leica DMI6000 B microscope with channels for Texas Red (Ex: 594 nm, Em: 600-630 nm), and JAS239 (Ex: 633 nm, Em: 728-800 nm).

human ChoKα = molecular target: T2, human ChoKα (Homo sapiens, UniProt P35790); test: Immunofluorescence study of ChoKα binding specificity; assay type: cell-based; conditions: fixed permeabilized MDA-MB-231 cells, 2 μM, added before or after ChoKα antibody
T2 construct: endogenous in cells; host or cells: MDA-MB-231 cells (fixed, permeabilized)
Procedure: as §2

MDA-MB-231 cells [4] = test: Fluorimetry of probe uptake in MDA-MB-231 cells; assay type: cell-based, human
Procedure: MDA-MB-231 cells were incubated with JAS239 and the fluorescence measured (Excitation 640 nm, Emission 770 nm).
as §1

T1 sequence (P35790 whole entry): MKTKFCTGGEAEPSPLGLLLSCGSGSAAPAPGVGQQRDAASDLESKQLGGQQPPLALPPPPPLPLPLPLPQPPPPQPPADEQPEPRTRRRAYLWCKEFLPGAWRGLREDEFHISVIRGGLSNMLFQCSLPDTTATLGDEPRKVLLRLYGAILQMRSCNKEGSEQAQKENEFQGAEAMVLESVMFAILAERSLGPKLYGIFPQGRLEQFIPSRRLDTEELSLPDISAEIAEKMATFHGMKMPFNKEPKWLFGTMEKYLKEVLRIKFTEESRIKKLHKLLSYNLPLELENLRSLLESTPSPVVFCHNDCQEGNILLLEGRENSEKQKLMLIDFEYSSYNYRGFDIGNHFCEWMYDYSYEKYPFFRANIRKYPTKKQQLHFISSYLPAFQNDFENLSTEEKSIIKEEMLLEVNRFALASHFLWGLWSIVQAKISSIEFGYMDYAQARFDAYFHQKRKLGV
T2 sequence (P35790 whole entry): as above

| Mode of ChoK inhibition (ChoK [2]) | Tissue accumulation of probe fluorescence (MDA-MB-231 tumors; 20 nmol i.v., 15 min post-injection, Ex. 745 nm, Em 800 nm) | Fluorescence in background muscle tissue (MDA-MB-231 tumors; excised tissue, dual CCD fluorescence camera) | Specificity of binding to ChoKα (human ChoKα) | SMILES | Time by which ChoK inhibition is present (ChoK [1]) | Sensitivity of MDA-MB-231 cells versus non-transformed MCF10a cells (ChoK [1]; 14 hr incubation, 14C-choline labeling) | ChoK inhibition (PC production as % control) (ChoK [1]) | IC50 of ChoK inhibition (ChoK [1]) | Subcellular localization (MDA-MB-231 cells [3]) | Time by which cell uptake is detectable (MDA-MB-231 cells [4]) | Cell uptake versus exogenous choline concentration (MDA-MB-231 cells [4]; MDA-MB-231 cells, 10 μM, 2 hr) | Cell uptake versus probe concentration (MDA-MB-231 cells [4]; MDA-MB-231 cells, Excitation 640 nm, Emission 770 nm) |
| --- | --- | --- | --- | --- | --- | --- | --- | --- | --- | --- | --- | --- |
| competitive inhibitor of ChoK | accumulate in the kidneys and tumor | no fluorescence detectable | specific to ChoKα | CC1(C)C(/C=C/C=C/C=C/C=C2\N(CCO)c3ccccc3C2(C)C)=[N+](CCO)c2ccccc21 [JAS239, 1-(2-hydroxyethyl)-2-((1E,3E,5E)-7-((Z/E)-1-(2-hydroxyethyl)-3,3-dimethylindolin-2-ylidene)hepta-1,3,5-trien-1-yl)-3,3-dimethyl-3H-indol-1-ium chloride] | ≤ 60 min | greater sensitivity | ChoK inhibition at physiologically-relevant concentrations | comparable to MN58b | co-localizes with the cytosolic expression of ChoK | ≤ 15 min | independent of exogenous choline concentration | linearly proportional to concentration |
| – | – | – | – | CN1\C(=C/C=C/C=C/C=C/C2=[N+](C)c3ccccc3C2(C)C)C(C)(C)c2ccccc21.[I-] [JAS240, 1,3,3-trimethyl-2-((1E,3E,5E)-7-((Z/E)-1,3,3-trimethylindolin-2-ylidene)hepta-1,3,5-trien-1-yl)-3H-indol-1-ium iodide] | – | – | ChoK inhibition at physiologically-relevant concentrations | comparable to MN58b | localized to the cytoplasm | – | – | – |

From patent US11813338B2, “Diagnosing and treating cancer” (The Trustees of the University of Pennsylvania, priority 2013, dated 2023)
